Data taken from ChEMBL document CHEMBL5465560, “Selectivity Literature for EUbOPEN Chemogenomic Library” (2024).

Columns and labels:
[1] = target: Serine/threonine-protein kinase pim-1 (Homo sapiens, UniProt P11309); assay: Selectivity interaction (Millipore kinase profiler) EUB0000124b PIM1; settings: at 10 µM
[2] = target: Macrophage-stimulating protein receptor (Homo sapiens, UniProt Q04912); assay: Selectivity interaction (KinomeScan (DiscoverX)) EUB0000229b MST1R; settings: at 10 µM
[3] = test system: T1, Receptor-type tyrosine-protein kinase FLT3 (Homo sapiens), P36888 [D835Y]; settings: at 10 µM
T1 sequence (whole entry): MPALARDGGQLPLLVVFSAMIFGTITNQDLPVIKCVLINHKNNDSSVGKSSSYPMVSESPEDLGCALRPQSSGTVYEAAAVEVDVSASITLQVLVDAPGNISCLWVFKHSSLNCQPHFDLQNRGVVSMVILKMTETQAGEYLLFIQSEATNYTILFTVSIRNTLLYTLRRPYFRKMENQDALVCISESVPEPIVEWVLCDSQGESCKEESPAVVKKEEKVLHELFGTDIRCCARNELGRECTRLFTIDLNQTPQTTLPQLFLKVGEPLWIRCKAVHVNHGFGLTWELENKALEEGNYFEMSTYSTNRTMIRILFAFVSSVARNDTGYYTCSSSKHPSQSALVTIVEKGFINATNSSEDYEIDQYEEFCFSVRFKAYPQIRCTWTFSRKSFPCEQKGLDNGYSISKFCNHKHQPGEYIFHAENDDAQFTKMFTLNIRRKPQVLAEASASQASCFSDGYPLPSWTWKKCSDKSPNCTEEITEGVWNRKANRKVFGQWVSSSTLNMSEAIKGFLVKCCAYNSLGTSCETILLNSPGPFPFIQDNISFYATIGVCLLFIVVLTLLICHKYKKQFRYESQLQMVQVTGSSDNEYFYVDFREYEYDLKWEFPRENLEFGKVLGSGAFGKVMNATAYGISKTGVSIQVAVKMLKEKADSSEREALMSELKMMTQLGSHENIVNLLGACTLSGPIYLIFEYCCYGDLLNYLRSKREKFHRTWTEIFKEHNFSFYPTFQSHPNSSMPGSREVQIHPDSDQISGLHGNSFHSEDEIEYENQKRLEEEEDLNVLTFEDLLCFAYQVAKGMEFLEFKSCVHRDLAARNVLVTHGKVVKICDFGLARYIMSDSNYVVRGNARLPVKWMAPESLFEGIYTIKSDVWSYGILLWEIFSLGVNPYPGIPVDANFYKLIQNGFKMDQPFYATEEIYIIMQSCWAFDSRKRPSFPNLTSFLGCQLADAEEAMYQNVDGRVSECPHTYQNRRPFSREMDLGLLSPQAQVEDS

[4] = target: Serine/threonine-protein kinase MARK2 (Homo sapiens) (UniProt Q7KZI7); assay: Selectivity interaction (Ambit KINOMEscan and KiNATiv profiling in Jurkat cells) EUB0000090b MARK2; type: cell-based; settings: at 1 µM
Sequence of Serine/threonine-protein kinase MARK2 (Homo sapiens) (Q7KZI7 whole entry): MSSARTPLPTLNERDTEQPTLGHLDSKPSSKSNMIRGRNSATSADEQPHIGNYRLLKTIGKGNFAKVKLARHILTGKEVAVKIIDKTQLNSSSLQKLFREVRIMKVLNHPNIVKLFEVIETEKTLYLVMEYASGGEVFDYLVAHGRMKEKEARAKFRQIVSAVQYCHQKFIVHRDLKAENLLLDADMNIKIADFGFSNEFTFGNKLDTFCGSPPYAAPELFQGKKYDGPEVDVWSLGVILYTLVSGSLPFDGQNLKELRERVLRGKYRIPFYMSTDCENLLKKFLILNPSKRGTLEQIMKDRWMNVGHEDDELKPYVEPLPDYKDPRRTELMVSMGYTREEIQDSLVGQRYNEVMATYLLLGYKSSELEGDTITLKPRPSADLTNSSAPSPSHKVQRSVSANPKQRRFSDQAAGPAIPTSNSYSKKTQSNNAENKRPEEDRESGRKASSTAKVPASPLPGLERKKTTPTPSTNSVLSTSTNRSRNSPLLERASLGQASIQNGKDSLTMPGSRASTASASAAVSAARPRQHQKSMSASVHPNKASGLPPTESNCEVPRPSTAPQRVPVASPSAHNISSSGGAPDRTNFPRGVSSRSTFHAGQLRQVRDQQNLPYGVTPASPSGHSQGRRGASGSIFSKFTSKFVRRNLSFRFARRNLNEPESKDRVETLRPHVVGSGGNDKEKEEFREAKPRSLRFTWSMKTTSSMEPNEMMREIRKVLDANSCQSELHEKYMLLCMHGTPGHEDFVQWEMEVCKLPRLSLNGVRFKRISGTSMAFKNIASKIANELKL

[5] = target: T2, Myosin-IIIb (Homo sapiens) (UniProt Q8WXR4); assay: Selectivity interaction (KinomeScan (DiscoverX)) EUB0000655a MYO3B; settings: at 10 µM
T2 sequence (whole entry): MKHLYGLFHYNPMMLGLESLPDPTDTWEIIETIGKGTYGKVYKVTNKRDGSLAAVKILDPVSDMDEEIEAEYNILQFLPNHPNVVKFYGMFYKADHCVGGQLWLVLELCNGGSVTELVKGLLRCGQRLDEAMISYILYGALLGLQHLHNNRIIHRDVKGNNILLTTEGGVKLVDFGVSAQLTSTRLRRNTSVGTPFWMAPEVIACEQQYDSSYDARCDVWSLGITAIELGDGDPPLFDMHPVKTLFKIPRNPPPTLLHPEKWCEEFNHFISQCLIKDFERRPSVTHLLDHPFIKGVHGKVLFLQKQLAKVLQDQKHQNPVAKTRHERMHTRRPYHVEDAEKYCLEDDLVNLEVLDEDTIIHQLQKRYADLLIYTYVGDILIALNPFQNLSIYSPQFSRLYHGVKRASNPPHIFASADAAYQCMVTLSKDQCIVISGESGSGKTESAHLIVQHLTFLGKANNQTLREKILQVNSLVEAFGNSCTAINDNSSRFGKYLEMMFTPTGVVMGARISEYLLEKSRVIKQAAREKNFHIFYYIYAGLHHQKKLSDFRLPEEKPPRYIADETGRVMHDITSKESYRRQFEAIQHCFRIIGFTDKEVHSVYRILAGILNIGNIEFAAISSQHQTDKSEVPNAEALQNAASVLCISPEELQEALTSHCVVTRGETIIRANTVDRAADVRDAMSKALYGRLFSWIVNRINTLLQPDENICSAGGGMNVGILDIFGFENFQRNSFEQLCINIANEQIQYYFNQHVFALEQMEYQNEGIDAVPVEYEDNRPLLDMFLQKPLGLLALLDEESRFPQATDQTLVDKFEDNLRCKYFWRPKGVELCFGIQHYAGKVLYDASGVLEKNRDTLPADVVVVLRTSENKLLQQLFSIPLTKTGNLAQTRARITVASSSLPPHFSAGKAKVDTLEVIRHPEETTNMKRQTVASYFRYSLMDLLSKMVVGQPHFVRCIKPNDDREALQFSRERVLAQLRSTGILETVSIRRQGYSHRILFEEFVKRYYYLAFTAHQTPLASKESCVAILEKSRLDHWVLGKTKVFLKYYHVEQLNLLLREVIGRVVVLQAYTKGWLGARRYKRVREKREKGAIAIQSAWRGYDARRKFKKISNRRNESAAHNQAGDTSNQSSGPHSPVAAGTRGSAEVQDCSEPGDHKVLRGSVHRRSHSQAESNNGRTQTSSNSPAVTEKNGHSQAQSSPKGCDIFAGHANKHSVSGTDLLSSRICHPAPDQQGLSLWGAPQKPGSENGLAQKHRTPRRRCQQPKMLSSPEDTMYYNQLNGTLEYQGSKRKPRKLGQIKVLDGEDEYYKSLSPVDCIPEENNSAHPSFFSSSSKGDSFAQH

Sequence of Serine/threonine-protein kinase pim-1 (P11309 whole entry, looked up): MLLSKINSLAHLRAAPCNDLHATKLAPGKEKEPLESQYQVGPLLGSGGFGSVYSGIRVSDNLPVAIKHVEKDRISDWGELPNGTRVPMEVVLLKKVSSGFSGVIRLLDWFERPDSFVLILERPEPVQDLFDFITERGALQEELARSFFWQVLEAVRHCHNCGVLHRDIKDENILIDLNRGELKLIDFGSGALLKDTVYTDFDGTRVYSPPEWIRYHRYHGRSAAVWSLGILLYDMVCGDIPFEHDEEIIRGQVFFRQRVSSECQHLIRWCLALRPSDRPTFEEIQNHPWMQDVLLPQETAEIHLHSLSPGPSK
Sequence of Macrophage-stimulating protein receptor (Q04912 25-304 limits assumed): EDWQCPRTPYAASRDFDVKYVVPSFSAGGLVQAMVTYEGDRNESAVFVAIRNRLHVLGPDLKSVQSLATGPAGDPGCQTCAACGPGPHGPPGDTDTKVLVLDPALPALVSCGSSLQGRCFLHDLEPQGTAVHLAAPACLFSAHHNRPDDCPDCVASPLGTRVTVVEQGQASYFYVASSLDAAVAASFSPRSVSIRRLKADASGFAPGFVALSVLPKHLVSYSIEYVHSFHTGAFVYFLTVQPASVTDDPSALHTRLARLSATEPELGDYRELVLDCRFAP
Sequence of Macrophage-stimulating protein receptor (Q04912 310-1400 limits assumed): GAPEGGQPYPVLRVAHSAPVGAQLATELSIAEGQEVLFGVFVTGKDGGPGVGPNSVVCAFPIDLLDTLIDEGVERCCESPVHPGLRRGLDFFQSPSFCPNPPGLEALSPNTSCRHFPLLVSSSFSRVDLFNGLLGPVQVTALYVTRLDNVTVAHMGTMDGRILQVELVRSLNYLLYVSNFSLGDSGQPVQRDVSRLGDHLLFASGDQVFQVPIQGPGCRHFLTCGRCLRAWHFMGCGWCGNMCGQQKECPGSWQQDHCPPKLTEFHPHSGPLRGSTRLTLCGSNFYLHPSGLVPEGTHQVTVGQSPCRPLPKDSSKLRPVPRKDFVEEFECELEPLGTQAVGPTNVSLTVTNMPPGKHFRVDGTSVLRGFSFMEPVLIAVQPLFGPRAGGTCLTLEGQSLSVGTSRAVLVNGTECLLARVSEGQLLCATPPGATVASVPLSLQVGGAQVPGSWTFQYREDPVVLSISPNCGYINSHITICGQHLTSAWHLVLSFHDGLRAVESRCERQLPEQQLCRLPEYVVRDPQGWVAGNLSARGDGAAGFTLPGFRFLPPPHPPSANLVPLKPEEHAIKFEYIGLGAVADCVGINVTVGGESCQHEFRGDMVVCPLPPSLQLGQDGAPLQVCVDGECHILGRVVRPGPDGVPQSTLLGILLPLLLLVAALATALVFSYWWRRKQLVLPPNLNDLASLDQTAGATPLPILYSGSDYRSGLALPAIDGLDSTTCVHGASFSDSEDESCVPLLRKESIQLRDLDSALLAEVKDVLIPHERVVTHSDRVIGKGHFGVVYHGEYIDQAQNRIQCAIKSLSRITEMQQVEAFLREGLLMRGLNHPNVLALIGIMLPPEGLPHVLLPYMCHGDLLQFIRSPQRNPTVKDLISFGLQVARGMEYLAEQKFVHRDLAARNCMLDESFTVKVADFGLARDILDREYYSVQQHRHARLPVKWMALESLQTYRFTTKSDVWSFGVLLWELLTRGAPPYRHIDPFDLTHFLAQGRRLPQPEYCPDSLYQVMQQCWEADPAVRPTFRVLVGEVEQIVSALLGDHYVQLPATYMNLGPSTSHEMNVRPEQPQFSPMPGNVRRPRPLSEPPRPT

SMILES: CC(=O)Nc1cccc(-n2c(=O)n(C3CC3)c(=O)c3c(Nc4ccc(I)cc4F)n(C)c(=O)c(C)c32)c1
- % of control [1]: 94%

SMILES: COc1cc(N(C)c2ccnc3ccc(C(F)(F)F)cc23)cc(OC)c1OC
- % binding [2]: 82%

SMILES: CCN(CC)CCCCNc1ncc2cc(-c3cc(OC)cc(OC)c3)c(NC(=O)NC(C)(C)C)nc2n1
- % of control [3]: 100%

SMILES: CN(C)C/C=C/C(=O)Nc1ccc(C(=O)N2CCCC(Nc3ncc(Cl)c(-c4c[nH]c5ccccc45)n3)C2)cc1 (stereo not given)
- % of control [4]: 78%

SMILES: CN(C)CCOc1ccc(-c2nc(-c3ccncc3)c(-c3ccc4c(c3)CC/C4=N\O)[nH]2)cc1
- % of control [5]: 81%
